Test results from PubChem BioAssay AID2060893 (Molecular Pharmacology Branch, DTP, NCI, 2025).

System: K86415-001-R-J1-PDC complex spheroids, viability
Assay: Anticancer human tumor K86415-001-R-J1-PDC patient-derived lung adenocarcinoma cell line growth inhibition [RAS]
Conditions: for IC50: curve of first compound; for viability, T/C: stronger effect = lower value
Procedure, shortened: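 Tumour cells grown as complex spheroids with HUVEC endothelial cells and mesenchymal stem cells, treated with RAS pathway inhibitor combinations. Each agent spans half-log steps from near clinical Cmax, or 10 microM where Cmax is unknown.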

[1] = second compound 0.000949 µM, first compound 0.0316 µM
[2] = second compound 0.000949 µM, first compound 0.1 µM
[3] = second compound 0.000949 µM, first compound 0.316 µM
[4] = second compound 0.000949 µM, first compound 1 µM
[5] = second compound 0.000949 µM, first compound 3.16 µM
[6] = second compound 0.000949 µM, first compound 10 µM
[7] = second compound 0.003 µM, first compound 0.0316 µM
[8] = second compound 0.003 µM, first compound 0.1 µM
[9] = second compound 0.003 µM, first compound 0.316 µM
[10] = second compound 0.003 µM, first compound 1 µM
[11] = second compound 0.003 µM, first compound 3.16 µM
[12] = second compound 0.003 µM, first compound 10 µM
[13] = second compound 0.00949 µM, first compound 0.0316 µM
[14] = second compound 0.00949 µM, first compound 0.1 µM
[15] = second compound 0.00949 µM, first compound 0.316 µM
[16] = second compound 0.00949 µM, first compound 1 µM
[17] = second compound 0.00949 µM, first compound 3.16 µM
[18] = second compound 0.00949 µM, first compound 10 µM
[19] = second compound 0.03 µM, first compound 0.0316 µM
[20] = second compound 0.03 µM, first compound 0.1 µM
[21] = second compound 0.03 µM, first compound 0.316 µM
[22] = second compound 0.03 µM, first compound 1 µM
[23] = second compound 0.03 µM, first compound 3.16 µM
[24] = second compound 0.03 µM, first compound 10 µM
[25] = second compound 0.0949 µM, first compound 0.0316 µM
[26] = second compound 0.0949 µM, first compound 0.1 µM
[27] = second compound 0.0949 µM, first compound 0.316 µM
[28] = second compound 0.0949 µM, first compound 1 µM
[29] = second compound 0.0949 µM, first compound 3.16 µM
[30] = second compound 0.0949 µM, first compound 10 µM
[31] = second compound 0.3 µM, first compound 0.0316 µM
[32] = second compound 0.3 µM, first compound 0.1 µM
[33] = second compound 0.3 µM, first compound 0.316 µM
[34] = second compound 0.3 µM, first compound 1 µM
[35] = second compound 0.3 µM, first compound 3.16 µM
[36] = second compound 0.3 µM, first compound 10 µM
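Further: spheroids exposed to agents for seven days before readout.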

Cc1nc(N2CCC3(CC2)COC(C)C3N)c(CO)nc1Sc1ccnc(N)c1Cl (stereo unspecified) + CCn1c(-c2cc(N3CCN(C)CC3)cnc2C(C)OC)c2c3cc(ccc31)-c1csc(n1)CC(NC(=O)C1CC1C)C(=O)N1CCCC(N1)C(=O)OCC(C)(C)C2
IC50 (second compound 0.000949 µM): < 31.6 nM | IC50 (second compound 0.003 µM): < 31.6 nM | IC50 (second compound 0.00949 µM): < 31.6 nM | IC50 (second compound 0.03 µM): < 31.6 nM | IC50 (second compound 0.0949 µM): < 31.6 nM | IC50 (second compound 0.3 µM): < 31.6 nM | viability, T/C [1]: 35.8% | viability, T/C [2]: 20.5% | viability, T/C [3]: 9.55% | viability, T/C [4]: 10.9% | viability, T/C [5]: 7.52% | viability, T/C [6]: 7.71% | viability, T/C [7]: 15.5% | viability, T/C [8]: 11.7% | viability, T/C [9]: 7.5% | viability, T/C [10]: 6.79% | viability, T/C [11]: 4.71% | viability, T/C [12]: 4.41% | viability, T/C [13]: 10.5% | viability, T/C [14]: 6.46% | viability, T/C [15]: 5.74% | viability, T/C [16]: 4.02% | viability, T/C [17]: 3.99% | viability, T/C [18]: 4.11% | viability, T/C [19]: 5.58% | viability, T/C [20]: 3.68% | viability, T/C [21]: 4.39% | viability, T/C [22]: 3.48% | viability, T/C [23]: 3.37% | viability, T/C [24]: 3.97% | viability, T/C [25]: 3.82% | viability, T/C [26]: 3.07% | viability, T/C [27]: 3.2% | viability, T/C [28]: 3.97% | viability, T/C [29]: 3.81% | viability, T/C [30]: 3.34% | viability, T/C [31]: 2.66% | viability, T/C [32]: 3.52% | viability, T/C [33]: 3.88% | viability, T/C [34]: 3.34% | viability, T/C [35]: 4.46% | viability, T/C [36]: 2.74%

CC(C)NCC(C(=O)N1CCN(c2ncnc3c2C(C)CC3O)CC1)c1ccc(Cl)cc1 (stereo unspecified) + CCn1c(-c2cccnc2C(C)OC)c2c3cc(ccc31)N1CCOC(CC(NC(=O)C(C(C)C)N(C)C(=O)C3(F)CCN(C(=O)C#CC(C)(C)N(C)C)CC3)C(=O)N3CCCC(N3)C(=O)OCC(C)(C)C2)C1
IC50 (second compound 0.000949 µM): < 31.6 nM | IC50 (second compound 0.003 µM): < 31.6 nM | IC50 (second compound 0.00949 µM): < 31.6 nM | IC50 (second compound 0.03 µM): < 31.6 nM | IC50 (second compound 0.0949 µM): < 31.6 nM | IC50 (second compound 0.3 µM): < 31.6 nM | viability, T/C [1]: 35.7% | viability, T/C [2]: 32.2% | viability, T/C [3]: 17.5% | viability, T/C [4]: 23.3% | viability, T/C [5]: 27.7% | viability, T/C [6]: 2.82% | viability, T/C [7]: 13.4% | viability, T/C [8]: 10.9% | viability, T/C [9]: 8.95% | viability, T/C [10]: 8.63% | viability, T/C [11]: 7.76% | viability, T/C [12]: 2.54% | viability, T/C [13]: 12.8% | viability, T/C [14]: 9.52% | viability, T/C [15]: 9.15% | viability, T/C [16]: 9.63% | viability, T/C [17]: 4.93% | viability, T/C [18]: 3.21% | viability, T/C [19]: 12.9% | viability, T/C [20]: 10.5% | viability, T/C [21]: 10.2% | viability, T/C [22]: 8.95% | viability, T/C [23]: 4.3% | viability, T/C [24]: 3.21% | viability, T/C [25]: 9.52% | viability, T/C [26]: 9.03% | viability, T/C [27]: 9.7% | viability, T/C [28]: 10% | viability, T/C [29]: 4.97% | viability, T/C [30]: 2.94% | viability, T/C [31]: 12.9% | viability, T/C [32]: 12% | viability, T/C [33]: 10.3% | viability, T/C [34]: 6.44% | viability, T/C [35]: 4.71% | viability, T/C [36]: 2.26%

CCN1CCN(Cc2ccc(Nc3ncc(F)c(-c4cc(F)c5nc(C)n(C(C)C)c5c4)n3)nc2)CC1 + CCn1c(-c2cccnc2C(C)OC)c2c3cc(ccc31)N1CCOC(CC(NC(=O)C(C(C)C)N(C)C(=O)C3(F)CCN(C(=O)C#CC(C)(C)N(C)C)CC3)C(=O)N3CCCC(N3)C(=O)OCC(C)(C)C2)C1
IC50 (second compound 0.000949 µM): < 3.16 nM | IC50 (second compound 0.003 µM): < 3.16 nM | IC50 (second compound 0.00949 µM): < 3.16 nM | IC50 (second compound 0.03 µM): < 3.16 nM | IC50 (second compound 0.0949 µM): < 3.16 nM | IC50 (second compound 0.3 µM): < 3.16 nM | viability, T/C (second compound 0.000949 µM, first compound 0.00316 µM): 39.1% | viability, T/C (second compound 0.000949 µM, first compound 0.01 µM): 31.2% | viability, T/C [1]: 20% | viability, T/C [2]: 30.3% | viability, T/C [3]: 31.1% | viability, T/C [4]: 20.5% | viability, T/C (second compound 0.003 µM, first compound 0.00316 µM): 12.1% | viability, T/C (second compound 0.003 µM, first compound 0.01 µM): 13.1% | viability, T/C [7]: 12.2% | viability, T/C [8]: 13.9% | viability, T/C [9]: 16.7% | viability, T/C [10]: 14.6% | viability, T/C (second compound 0.00949 µM, first compound 0.00316 µM): 11.7% | viability, T/C (second compound 0.00949 µM, first compound 0.01 µM): 12.4% | viability, T/C [13]: 10.6% | viability, T/C [14]: 11.8% | viability, T/C [15]: 14.3% | viability, T/C [16]: 19.3% | viability, T/C (second compound 0.03 µM, first compound 0.00316 µM): 14% | viability, T/C (second compound 0.03 µM, first compound 0.01 µM): 11.8% | viability, T/C [19]: 11.1% | viability, T/C [20]: 14% | viability, T/C [21]: 14.5% | viability, T/C [22]: 13.9% | viability, T/C (second compound 0.0949 µM, first compound 0.00316 µM): 12.4% | viability, T/C (second compound 0.0949 µM, first compound 0.01 µM): 14.8% | viability, T/C [25]: 15.8% | viability, T/C [26]: 14.8% | viability, T/C [27]: 14.4% | viability, T/C [28]: 13.8% | viability, T/C (second compound 0.3 µM, first compound 0.00316 µM): 13.6% | viability, T/C (second compound 0.3 µM, first compound 0.01 µM): 12% | viability, T/C [31]: 11.1% | viability, T/C [32]: 10.8% | viability, T/C [33]: 9.64% | viability, T/C [34]: 11.7%
